Data: US12084435B2, “Pyridine ring-substituted pyridazinol compounds and derivatives, preparation methods, herbicidal compositions and applications thereof” (Qingdao Kingagroot Chemical Compound Co., Ltd., priority 2018, dated 2024)

What follows are compounds tested on Echinochloa crusgalli, Scirpus juncoides, Sagittaria trifolia L. and Bidens tripartite (assay: Resistance tests of the collected rice-field weeds). Conditions: common rate; weed seeds collected from Heilongjiang Province of China.
Type: in vivo
Excerpt: Note: The seeds of Echinochloa crusgalli, Scirpus juncoides, Sagittaria trifolia L. and Bidens tripartite were collected from Heilongjiang Province of China.

Structure (SMILES) | resistance of the weeds to the herbicide
CCOC(=O)c1cnn(C)c1S(=O)(=O)NC(=O)Nc1nc(OC)cc(OC)n1 [pyrazosulfuron-ethyl] | resistant

What follows are compounds tested on monocotyledonous and dicotyledonous weed (assay: Post-emergence test, weed control effect (Tables 6 and 7)). Conditions: Dose 300 g/ha.
Type: in vivo
Set-up: key: 10: completely dead; above 90% growth inhibition rate; above 80% growth inhibition rate; above 70% growth inhibition rate; above 60% growth inhibition rate; above 50% growth inhibition rate; above 40% growth inhibition rate; above 30% growth inhibition rate; above 20% growth inhibition rate; 1: below 20% growth inhibition rate; 0: no effect
Method: The above described growth inhibition rates are fresh weight inhibition rates. Experiment of post-emergence test: monocotyledonous and dicotyledonous weed seeds as well as main crop seeds (i.e., wheat, corn, rice, soybean, cotton, oilseed rape, millet and sorghum) were put into aplastic pot loaded with soil, then covered with 0.5-2 cm of soil, and the seeds were allowed to grow in good greenhouse environment. The test plants were treated at 4-5 leaf stage 2-3 week […] sowing. The test compounds of the invention were dissolved in acetone respectively, then added with Tween-80 and diluted by a certain amount of water to give solutions with certain concentrations. The solution was sprayed to the plants with as prayer. The plants were cultured for 3 weeks in the greenhouse.

Structure (SMILES) | comparison experiment (activity level), Digitaria sanguinalis | comparison experiment (activity level), Echinochloa crus-galli | comparison experiment (activity level), Galium aparine | comparison experiment (activity level), Rorippa indica | comparison experiment (activity level), Setaria viridis | comparison experiment (activity level), Veronica polita
Oc1cc(Cl)nnc1-c1cncc(F)c1 [Compound 1-4] | 8 (above 80% growth inhibition rate) | 8 (above 80% growth inhibition rate) | 10 | 10 | 10 | 10
Oc1cc(Cl)nnc1-c1cccnc1F [Compound 1-2] | 8 (above 80% growth inhibition rate) | 10 | 9 (above 90% growth inhibition rate) | 10 | 10 | 10
CCCCCCCCSC(=O)Oc1cc(Cl)nnc1-c1ccccc1 [Control Compound B, reference compound] | 0 | 0 | 4 (above 40% growth inhibition rate) | 3 (above 30% growth inhibition rate) | 2 (above 20% growth inhibition rate) | 6 (above 60% growth inhibition rate)
Oc1cc(Cl)nnc1-c1ccnc(F)c1 [Compound 2-3] | 10 | 10 | 10 | 10 | 10 | 10
Oc1cc(Cl)nnc1-c1cccnc1 [Compound 1-1] | 7 (above 70% growth inhibition rate) | 8 (above 80% growth inhibition rate) | 9 (above 90% growth inhibition rate) | 10 | 10 | 9 (above 90% growth inhibition rate)

Same assay, conditions: Dose 1000 g/ha, after 3 weeks

Structure (SMILES) | weed control effect (activity level), Amaranthus retroflexus | weed control effect (activity level), Chenopodiaceae | weed control effect (activity level), Rorippa indica | weed control effect (activity level), Veronica polita
Oc1cc(Cl)nnc1-c1ccnc(Cl)c1 [Compound 2-5] | 10 | 10 | 10 | 10
Oc1cc(Cl)nnc1-c1cc(F)ncc1F [Compound 2-11] | 10 | 10 | 10 | 10
Oc1cc(Cl)nnc1-c1ccnc(F)c1 [Compound 2-3] | 10 | 10 | 10 | 10
Oc1cc(Cl)nnc1-c1ccnc(F)c1F [Compound 2-10] | 10 | 10 | 10 | 10
Oc1cc(Cl)nnc1-c1cc(F)nc(Cl)c1 [Compound 2-23] | 10 | 10 | 10 | 10
Oc1cc(Cl)nnc1-c1cc(F)nc(F)c1 [Compound 2-13] | 10 | 10 | 10 | 10

Same assay, conditions: Dose 2000 g/ha, after 3 weeks

Structure (SMILES) | weed control effect (activity level), Amaranthus retroflexus | weed control effect (activity level), Chenopodiaceae | weed control effect (activity level), Rorippa indica | weed control effect (activity level), Veronica polita
Oc1cc(Cl)nnc1-c1ccc(Br)nc1 [Compound 1-11] | 10 | 10 | 10 | 10
Oc1cc(Cl)nnc1-c1cncc(F)c1 [Compound 1-4] | 10 | 10 | 10 | 10
Oc1cc(Cl)nnc1-c1ccc(Cl)cn1 [Compound 3-7] | 10 | 10 | 10 | 10
Oc1cc(Cl)nnc1-c1ccc(F)nc1F [Compound 1-57] | 10 | 10 | 10 | 10
Oc1cc(Cl)nnc1-c1cc(Cl)ccn1 [Compound 3-8] | 10 | 10 | 10 | 10
Oc1cc(Cl)nnc1-c1cc(F)c(F)nc1F [Compound 1-105] | 10 | 10 | 10 | 10
Oc1cc(Cl)nnc1-c1ccc(Cl)nc1Cl [Compound 1-63] | 10 | 10 | 10 | 10
Oc1cc(Cl)nnc1-c1cccnc1F [Compound 1-2] | 10 | 10 | 10 | 10
Oc1cc(Cl)nnc1-c1ccc(C(F)(F)F)nc1 [Compound 1-23] | 10 | 10 | 10 | 10
Oc1cc(Cl)nnc1-c1cnc(F)c(F)c1 [Compound 1-60] | 10 | 10 | 10 | 7 (above 70% growth inhibition rate)
Oc1cc(Cl)nnc1-c1cccnc1Cl [Compound 1-6] | 10 | 10 | 10 | 7 (above 70% growth inhibition rate)
Oc1cc(Cl)nnc1-c1ccc(F)cn1 [Compound 3-3] | 10 | 10 | 10 | 10
Oc1cc(Cl)nnc1-c1cc(F)cc(F)n1 [Compound 3-19] | 10 | 10 | 10 | 10
Oc1cc(Cl)nnc1-c1ccc(F)nc1 [Compound 1-3] | 10 | 10 | 10 | 10
Cc1nc(F)ccc1-c1nnc(Cl)cc1O [Compound 1-90] | 10 | 10 | 10 | 7 (above 70% growth inhibition rate)
Oc1cc(Cl)nnc1-c1cncc(Cl)c1 [Compound 1-8] | 10 | 10 | 10 | 10
Oc1cc(Cl)nnc1-c1cc(F)cnc1F [Compound 1-58] | 10 | 10 | 10 | 10
Oc1cc(Cl)nnc1-c1cnccc1F [Compound 1-5] | 10 | 10 | 10 | 10
Oc1cc(Cl)nnc1-c1ccc(Cl)c(F)n1 [Compound 3-30] | 10 | 10 | 10 | 10
Oc1cc(Cl)nnc1-c1ccc(F)c(F)n1 [Compound 3-18] | 10 | 10 | 10 | 10
Oc1cc(Cl)nnc1-c1cccnc1 [Compound 1-1] | 10 | 10 | 10 | 10

Same assay, conditions: Dose 3000 g/ha, after 3 weeks

Structure (SMILES) | weed control effect (activity level), Amaranthus retroflexus | weed control effect (activity level), Chenopodiaceae | weed control effect (activity level), Rorippa indica | weed control effect (activity level), Veronica polita
Oc1cc(C(F)(F)C(F)(F)F)nnc1-c1ccc(F)nc1F [Compound 1-131] | 10 | 10 | 10 | 10
